# Results from EP1752149A1 (LABORATORIOS DEL DR. ESTEVE, S.A., priority 2005, dated 2007).
# Columns and labels:
# [1] = system: Nuclear factor of activated T cells (NFAT); experiment: NFAT-LUC luciferase reporter, transcriptional activation in Jurkat T cells; assay type: cell-based, human; conditions: Jurkat (PMA+Ion), 6 hours; for IC50: Homo sapiens, approximate value, read-out: NFAT-LUC IC-50
# Protocol: (§1) It was also analyzed how these compounds affect transcriptional induction mediated by the transcription factors Nuclear factor of activated T cells (NFAT) or Nuclear factor (NF)-κB. In these experiments, Jurkat T cells or THP-1 cells were transiently transfected by the Lipofectamine2000 reagent (Invitrogen), with luciferase reporter constructs whose expression are directed by three copies of the Interleukin-2 (IL-2) NFAT responsive element (NFAT-LUC) or by three copies of an NF-κB responsive element (NF-κB-LUC). Cells were treated with increased doses of the compound according to example 1 in the presence or absence of stimulation with the phorbol ester PMA (15 ng/ml) plus the A23187 calcium ionophore (1µM) for 6 hours in Jurkat cells or with LPS (5 µg/ml) for 18 hours in THP-1 cells and luciferase activity was measured in cell lysates. Results obtained are represented as percentage of activation, considering 100% the value of luciferase activity obtained in stimulated cells in the absence of the compound according to example 1. The approximate IC-50 (µM) values for the inhibition of the transcriptional activation of NFAT and NF-κB are also shown (Table 2).
# Nuclear factor (NF)-κB [2] = experiment: NF-κB-LUC luciferase reporter, transcriptional activation in Jurkat T cells; assay type: cell-based, human; conditions: Jurkat (PMA+Ion), 6 hours; for IC50: Homo sapiens, approximate value, read-out: NF-κB -LUC IC-50
# Protocol: as §1
# Nuclear factor (NF)-κB [3] = experiment: NF-κB-LUC luciferase reporter, transcriptional activation in THP-1 cells; assay type: cell-based, human; conditions: THP-1 (LPS), 18 hours; for IC50: Homo sapiens, approximate value, read-out: NF-κB-LUC IC-50
# Protocol: as §1
# [4] = system: cyclooxygenase-2 (COX-LUC); experiment: COX2-LUC promoter luciferase reporter in Jurkat T cells; assay type: cell-based, human; conditions: Jurkat (PMA+Ion); for IC50: Homo sapiens, approximated value, read-out: COX2-LUC IC-50
# Protocol: as §1
# (§2) The compound according to example 1 was measured for its ability to regulate gene transcription in immune activation through the modulation of the transcriptional activity of luciferase reporter constructs whose expression is directed by the promoter region of genes involved in the inflammation process and immune activation, such as cyclooxygenase-2 (COX-LUC), tumor necrosis factor α (TNF-LUC), Interleukin-2 (IL-2-LUC), Interleukin-6 (IL-6-LUC) and the inducible Nitric Oxide Synthase (iNOS-LUC). Jurkat T cells or THP-1 cells were transiently transfected with these constructs as described above, and treated with different doses of The compound according to example 1 in the presence or absence of stimulation with PMA plus Ion (Jurkat) or LPS in a similar way as for NFAT-LUC and NFKB-LUC reporter analysis. Results are represented as percentage of activation, considering 100% the value of luciferase activity obtained in stimulated cells in the absence of the compound according to example 1. Approximated IC50 (µM) values obtained for inhibition of the transcriptional activation are summarized in tables 3 (Jurkat) and 4 (THP-1).
# [5] = system: tumor necrosis factor α (TNF-LUC); experiment: TNF-LUC promoter luciferase reporter in Jurkat T cells; assay type: cell-based, human; conditions: Jurkat (PMA+Ion); for IC50: Homo sapiens, approximated value, read-out: TNF-LUC IC-50
# Protocol: as §1, §2
# Interleukin-2 (IL-2-LUC) = experiment: IL-2-LUC promoter luciferase reporter in Jurkat T cells; assay type: cell-based, human; conditions: Jurkat (PMA+Ion); for IC50: Homo sapiens, approximated value, read-out: IL-2-LUC IC-50
# Protocol: as §1, §2
# Interleukin-6 (IL-6-LUC) = experiment: IL-6-LUC promoter luciferase reporter in Jurkat T cells; assay type: cell-based, human; conditions: Jurkat (PMA+Ion); for IC50: Homo sapiens, approximated value, read-out: IL-6-LUC IC-50
# Protocol: as §1, §2
# [6] = system: cyclooxygenase-2 (COX-LUC); experiment: COX2-LUC promoter luciferase reporter in THP-1 cells; assay type: cell-based, human; conditions: THP-1 (LPS); for IC50: Homo sapiens, approximated value, read-out: COX2-LUC IC-50
# Protocol: as §1, §2
# [7] = system: tumor necrosis factor α (TNF-LUC); experiment: TNF-LUC promoter luciferase reporter in THP-1 cells; assay type: cell-based, human; conditions: THP-1 (LPS); for IC50: Homo sapiens, approximated value, read-out: TNF-LUC IC-50
# Protocol: as §1, §2
# [8] = system: inducible Nitric Oxide Synthase (iNOS-LUC); experiment: iNOS-LUC promoter luciferase reporter in THP-1 cells; assay type: cell-based, human; conditions: THP-1 (LPS); for IC50: Homo sapiens, approximated value, read-out: iNOS-LUC IC-50
# Protocol: as §1, §2
# TNFα = experiment: Inhibition of cytokine production: TNFα secretion by Jurkat T cells, ELISA; assay type: cell-based, human; conditions: Jurkat (PMA+Ion), 24 hours; for IC50: Homo sapiens, approximated value, read-out: TNF IC-50 (µM), inhibition of the cytokine production
# Protocol: (§3) In addition to the transcriptional assays, we have also determined the effects of the compound according to example 1 in the secretion of TNFα and IL-2 to the culture medium. Jurkat T cells were treated with different doses of the compound according to example 1 in the presence or absence of stimulation with PMA plus Ion for 24 hours. Supematants were collected and cytokines were measured by specific ELISA for each cytokine (Bender MedSystems). Results are represented as percentage of cytokine production, considering 100% the maximal levels of cytokine production (pg/ml) obtained in PMA+lon stimulated Jurkat cells in the absence of the compound according to example 1.
# IL-2 = experiment: Inhibition of cytokine production: IL-2 secretion by Jurkat T cells, ELISA; assay type: cell-based, human; conditions: Jurkat (PMA+Ion), 24 hours; for IC50: Homo sapiens, approximated value, read-out: IL-2 IC-50 (µM), inhibition of the cytokine production
# Protocol: as §3
# [9] = In-vivo bioassay system for determination of cannabinoid activity (hot-plate test, hypothermia, catalepsy, sedation); conditions: for Agonistic effect A: Hot-Plate test / Agonistic effect B: Hypothermia / Agonistic effect C: Catalepsy / Agonistic effect D: Sedation: 5 mg/kg i.v.
# [10] = Cell viability, tetrazolium salt WST-1, unstimulated Jurkat cells; assay type: cell-based; conditions: human, Jurkat (Cont), read-out: percentage of viability
# Protocol: (§4) The viability of the cells was measured by the use of the tetrazolium salt WST-1 (Roche Molecular Biochemicals). Unstimulated Jurkat cells or LPS (5 µg/ml) treated THP-1 cells were incubated for 24 or 18 hours respectively in the presence of increasing doses of the compound according to example 1 (1, 10, 100, 1000 and 10000 nM) and incubated with 10% of WST-1 reagent for 1 hour. Quantification of the formazan dye produced by metabolically active cells was spectrophotometrically measured at 450 nm and a reference wavelength of 630 nm. Data are represented as percentage of viability considering 100% the value of absorbance obtained in the absence of example 1 (Table 1).
# [11] = Cell viability, tetrazolium salt WST-1, LPS treated THP-1 cells; assay type: cell-based; conditions: human, THP-1 (LPS 5 µg/ml), read-out: percentage of viability
# Protocol: as §4
# [12] = 5 mg/kg i.v. prior to Win 55212-2 in a dose of 1,25mg/kg i.v.
compound,measurement,setting,value
"Cc1c(C(=O)NN2CCCCC2)nn(-c2ccc(Cl)cc2Cl)c1-c1ccc(Cl)cc1 [SR141716, reference compound]",IC50,[1],200 nM
same,IC50,Nuclear factor (NF)-κB [2],1000 nM
same,IC50,Nuclear factor (NF)-κB [3],5000 nM
same,IC50,[4],> 10000 nM
same,IC50,[5],10 nM
same,IC50,Interleukin-2 (IL-2-LUC),100 nM
same,IC50,Interleukin-6 (IL-6-LUC),1000 nM
same,IC50,[6],6000 nM
same,IC50,[7],3000 nM
same,IC50,[8],3000 nM
same,IC50,TNFα,6 µM
same,IC50,IL-2,7 µM
"O=C(C1=NN(c2ccc(Cl)cc2Cl)C(c2ccc(Cl)cc2)C1)N1CCCCC1 (stereo not shown) [Example 5, [5-(4-Chloro-phenyl)-1-(2,4-dichloro-phenyl)-4,5-dihydro-1H-pyrazol-3-yl]-piperidin-1-yl-methanone]",Agonistic effect A: Hot-Plate test,[9],0
same,Agonistic effect B: Hypothermia,[9],50
same,Agonistic effect C: Catalepsy,[9],0
same,Agonistic effect D: Sedation,[9],0
same,Antagonistic Effect A: Hot-Plate test,[9]; [12],50
same,Antagonistic Effect B: Hypothermia,[9]; [12],40
same,Antagonistic Effect C: Catalepsy,[9]; [12],20
same,Antagonistic Effect D: Sedation,[9]; [12],20
"O=C(NN1CCCCC1)C1=NN(c2ccc(Cl)cc2Cl)C(c2ccc(Cl)cc2)C1 (stereo not shown) [Example 1, N-piperidinyl-5-(4-chlorophenyl)-1-(2,4-dichlorophenyl)-4,5-dihydro-1H-pyrazole-3-carboxamide]",Agonistic effect A: Hot-Plate test,[9],0
same,Agonistic effect B: Hypothermia,[9],0
same,Agonistic effect C: Catalepsy,[9],0
same,Agonistic effect D: Sedation,[9],0
same,Antagonistic Effect B: Hypothermia,[9]; [12],100
same,Antagonistic Effect C: Catalepsy,[9]; [12],100
same,Antagonistic Effect D: Sedation,[9]; [12],100
same,"viability at 24 h, 0.01 µM",[10]; 10 nM,92.6%
same,"viability at 24 h, 0.1 µM",[10]; 100 nM,95.4%
same,"viability at 24 h, 1 µM",[10]; 1000 nM,96.3%
same,"viability at 24 h, 10 µM",[10]; 10000 nM,97.7%
same,"viability at 18 h, 0.01 µM",[11]; 10 nM,105%
same,"viability at 18 h, 1 µM",[11]; 1000 nM,110%
same,"viability at 18 h, 10 µM",[11]; 10000 nM,80.2%
same,IC50,[1],3000 nM
same,NFAT-LUC percentage of activation,[1]; 0.01 µM,72.4%
same,NFAT-LUC percentage of activation,[1]; 1 µM,56.8%
same,NFAT-LUC percentage of activation,[1]; 10 µM,7.4%
same,IC50,Nuclear factor (NF)-κB [2],7000 nM
same,NF-κB-LUC percentage of activation,Nuclear factor (NF)-κB [2]; 0.01 µM,94.7%
same,NF-κB-LUC percentage of activation,Nuclear factor (NF)-κB [2]; 1 µM,74.4%
same,NF-κB-LUC percentage of activation,Nuclear factor (NF)-κB [2]; 10 µM,39.3%
same,IC50,Nuclear factor (NF)-κB [3],6000 nM
same,NF-κB-LUC percentage of activation,Nuclear factor (NF)-κB [3]; 0.01 µM,100.4%
same,NF-κB-LUC percentage of activation,Nuclear factor (NF)-κB [3]; 1 µM,104.6%
same,NF-κB-LUC percentage of activation,Nuclear factor (NF)-κB [3]; 10 µM,3.4%
same,IC50,[4],8000 nM
same,COX2-LUC percentage of activation,[4]; 0.01 µM,102.7%
same,COX2-LUC percentage of activation,[4]; 1 µM,93.2%
same,COX2-LUC percentage of activation,[4]; 10 µM,31.5%
same,IC50,[5],100 nM
same,TNF-LUC percentage of activation,[5]; 0.01 µM,59.5%
same,TNF-LUC percentage of activation,[5]; 1 µM,29.9%
same,TNF-LUC percentage of activation,[5]; 10 µM,13.7%
same,IC50,Interleukin-2 (IL-2-LUC),1000 nM
same,IL-2-LUC percentage of activation,Interleukin-2 (IL-2-LUC); 0.01 µM,85.9%
same,IL-2-LUC percentage of activation,Interleukin-2 (IL-2-LUC); 1 µM,49.0%
same,IL-2-LUC percentage of activation,Interleukin-2 (IL-2-LUC); 10 µM,9.9%
same,IC50,Interleukin-6 (IL-6-LUC),4000 nM
same,IL-6-LUC percentage of activation,Interleukin-6 (IL-6-LUC); 0.01 µM,82.3%
same,IL-6-LUC percentage of activation,Interleukin-6 (IL-6-LUC); 1 µM,61.8%
same,IL-6-LUC percentage of activation,Interleukin-6 (IL-6-LUC); 10 µM,18.6%
same,IC50,[6],2000 nM
same,COX2-LUC percentage of activation,[6]; 0.01 µM,102.7%
same,COX2-LUC percentage of activation,[6]; 1 µM,59.6%
same,COX2-LUC percentage of activation,[6]; 10 µM,6.8%
same,IC50,[7],3000 nM
same,TNF-LUC percentage of activation,[7]; 0.01 µM,104.4%
same,TNF-LUC percentage of activation,[7]; 1 µM,65.4%
same,TNF-LUC percentage of activation,[7]; 10 µM,12.7%
same,IC50,[8],4000 nM
same,iNOS-LUC percentage of activation,[8]; 0.01 µM,89.5%
same,iNOS-LUC percentage of activation,[8]; 1 µM,71.3%
same,iNOS-LUC percentage of activation,[8]; 10 µM,13.2%
same,IC50,TNFα,5 µM
same,TNF percentage of cytokine production,TNFα; 0.01 µM,79.5%
same,TNF percentage of cytokine production,TNFα; 1 µM,80.3%
same,TNF percentage of cytokine production,TNFα; 10 µM,11.5%
same,IC50,IL-2,6 µM
same,IL-2 percentage of cytokine production,IL-2; 0.01 µM,97.5%
same,IL-2 percentage of cytokine production,IL-2; 1 µM,98.7%
same,IL-2 percentage of cytokine production,IL-2; 10 µM,13.2%
